The source of these data is patent US20260022143A1, “Cyclic Peptide Inhibitors of IL-23” (JANSSEN PHARMACEUTICA NV, priority 2022, published 2026).

Positions of bridges follow the written chain, without caps; N, C: chain ends. Non-standard residues stand in square brackets, D forms with d. Residues, ends and D or L forms follow the SMILES beside them. *: point of attachment. Me3N+(CH2)2O(CH2)2O(CH2)2CO = C[N+](C)(C)CCOCCOCCC(=O)*; X34 = C[N+](C)(C)CCOCCOCCC(=O)N(CC[N+](C)(C)C)CC*; CH2CH2OCH2CH2OCH2CH2NMe3+ = C[N+](C)(C)CCOCCOCC*; Trp(7-Me) = Cc1cccc2c(C[C@H](N)C(=O)O)c[nH]c12; Hexanoyl(6-NMe3+) = C[N+](C)(C)CCCCCC(=O)*; Dab(NMeAc) = CC(=O)N(C)CC[C@H](N)C(=O)O; 2Nal = N[C@@H](Cc1ccc2ccccc2c1)C(=O)O; 3Pal = N[C@@H](Cc1cccnc1)C(=O)O; Lys(Me) = CNCCCC[C@H](N)C(=O)O; Pen = CC(C)(S)[C@H](N)C(=O)O; X4 = COCCOCCCN(CCCOCCOC)CC*; Thp = NC1(C(=O)O)CCOCC1; Dap = NC[C@H](N)C(=O)O; X61 = COCCOCCCNCC*; Sar = CNCC(=O)O

This series in a line: Exposed Polar Surface Area (EPSA). The class given is physicochemical. Conditions: SFC on Chirex 3014 column; sample 1 mM DMSO stock; read-out: EPSA. In short, it runs like this: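 Polarity measured by SFC on a Chirex 3014 column (35 °C, 4 mL/min) with methanol/ammonium formate in CO2 as gradient eluent. Retention times were normalised to EPSA (Å^2) against eight reference compounds.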
In the case of `COCCOCCCNCCOc1ccc(C[C@H](NC(=O)[C@H]2NC(=O)[C@H](CCCCNC(C)=O)NC(=O)[C@H](Cc3c[nH]c4c(C)cccc34)NC(=O)[C@H]([C@@H](C)O)NC(=O)[C@H](CC(N)=O)NC(=O)[C@@H](NC(=O)CCCCC[N+](C)(C)C)C(C)(C)SSC2(C)C)C(=O)N[C@@H](Cc2ccc3ccccc3c2)C(=O)NC2(C(=O)N[C@@H](CNC(C)=O)C(=O)N[C@@H](CC(N)=O)C(=O)N[C@@H](Cc3cccnc3)C(=O)N(C)CC(N)=O)CCOCC2)cc1` [compound 204] ({Hexanoyl(6-NMe3+)}-[Pen]NT[Trp(7-Me)]K(Ac)[Pen]Y(X61)[2Nal][Thp][Dap](Ac)N[3Pal][Sar]-NH2; disulfide 1-6), the EPSA turned out to be 153 A^2.
In the case of `COCCOCCCN(CCCOCCOC)CCOc1ccc(C[C@H](NC(=O)[C@H]2NC(=O)[C@H](CCCCNC(C)=O)NC(=O)[C@H](Cc3c[nH]c4c(C)cccc34)NC(=O)[C@H]([C@@H](C)O)NC(=O)[C@H](CC(N)=O)NC(=O)[C@@H](NC(=O)CCCCC[N+](C)(C)C)C(C)(C)SSC2(C)C)C(=O)N[C@@H](Cc2ccc3ccccc3c2)C(=O)NC2(C(=O)N[C@@H](CNC(C)=O)C(=O)N[C@@H](CC(N)=O)C(=O)N[C@@H](Cc3cccnc3)C(=O)N(C)CC(N)=O)CCOCC2)cc1` [compound 205] ({Hexanoyl(6-NMe3+)}-[Pen]NT[Trp(7-Me)]K(Ac)[Pen]Y(X4)[2Nal][Thp][Dap](Ac)N[3Pal][Sar]-NH2; disulfide 1-6), the EPSA came to 149 A^2.
Consider `CC(=O)N(C)CCCC[C@@H]1NC(=O)[C@H](Cc2c[nH]c3c(C)cccc23)NC(=O)[C@H]([C@@H](C)O)NC(=O)[C@H](CC(=O)N(C)C)NC(=O)[C@@H](NC(=O)CCOCCOCC[N+](C)(C)C)C(C)(C)SSC(C)(C)[C@@H](C(=O)N[C@@H](Cc2ccc(OCCN(CC[N+](C)(C)C)C(=O)CCOCCOCC[N+](C)(C)C)cc2)C(=O)N[C@@H](Cc2ccc3ccccc3c2)C(=O)NC2(C(=O)N[C@@H](CCCCN(C)C(C)=O)C(=O)N[C@@H](CC(N)=O)C(=O)N[C@@H](Cc3cccnc3)C(=O)N(C)CC(=O)N(C)C)CCOCC2)NC1=O` [compound 208, cPEG3aCO-Pen(3)-N(N(Me)2)-T-7MeW-K(NMeAc)-Pen(3)-AEF((Ch)cPEG3a)-2Nal-THP-K(NMeAc)-N-3Pya-Sar-CON(Me)2] ({Me3N+(CH2)2O(CH2)2O(CH2)2CO}-[Pen]D(NMe2)T[Trp(7-Me)][Lys(Me)](Ac)[Pen]Y(X34)[2Nal][Thp][Lys(Me)](Ac)N[3Pal][Sar]-NMe2; disulfide 1-6), for which the EPSA is 141 A^2.
For `CC(=O)N(C)CCCC[C@@H]1NC(=O)[C@H](Cc2c[nH]c3c(C)cccc23)NC(=O)[C@H]([C@@H](C)O)NC(=O)[C@H](CC(=O)N(C)C)NC(=O)[C@@H](NC(=O)CCOCCOCC[N+](C)(C)C)C(C)(C)SSC(C)(C)[C@@H](C(=O)N[C@@H](Cc2ccc(OCCOCCOCC[N+](C)(C)C)cc2)C(=O)N[C@@H](Cc2ccc3ccccc3c2)C(=O)NC2(C(=O)N[C@@H](CCN(C)C(C)=O)C(=O)N[C@@H](CC(N)=O)C(=O)N[C@@H](Cc3cccnc3)C(=O)N(C)CC(=O)N(C)C)CCOCC2)NC1=O` [compound 209, cPEG3aCO-Pen(3)-N(N(Me)2)-T-7MeW-K(NMeAc)-Pen(3)-APEG3F-2Nal-THP-Dab(NMeAc)-N-3Pya-Sar-CON(Me)2] ({Me3N+(CH2)2O(CH2)2O(CH2)2CO}-[Pen]D(NMe2)T[Trp(7-Me)][Lys(Me)](Ac)[Pen]Y(CH2CH2OCH2CH2OCH2CH2NMe3+)[2Nal][Thp][Dab(NMeAc)]N[3Pal][Sar]-NMe2; disulfide 1-6), the EPSA came out at 139 A^2.
